PMC8389907 (Journal of Medicinal Chemistry, 2021)
Where two headings read alike, the source gives them in different places.

Assays:
DU145 cells = assay: MTT cell viability assay, DU145; format: cell-based; conditions: Homo sapiens, DU-145
Method: (§1) The cell lines DU145 (HTB-81, human prostate carcinoma), PC3 (CRL-1435, human prostate adenocarcinoma), MCF7 (HTB-22, human breast adenocarcinoma), MDA-MB231 (HTB-26, human breast adenocarcinoma), and HCT116 (CCL-247, human colorectal carcinoma) were obtained from ATCC (American Type Culture Collection, Manassas, VA, USA); WH1 human fibroblasts were kindly provided by Dr. Guven.[51] All the cells were maintained under standard culture conditions (37 °C; 5% CO2) in the RMPI1640 medium (PC3, MCF7, and MDA-MB231 cells), while DU145 and HCT116 cells were in the DMEM and Iscove’s medium (WH1 cells) supplemented with 10% fetal calf serum, 1% glutamine, and 1% antibiotics mixture; for HCT116 and DU145 cells, 1% sodium pyruvate and 1% non-essential amino acids were also added to the culture medium.
(§2) The 3-(4,5-dimethylthiazol-2-yl)-2,5-diphenyltetrazolium bromide (MTT) assay was performed on all the cell lines tested as previously described[52] with minor modifications. Briefly, according to the growth profiles previously defined for each cell line, adequate numbers of cells were plated in each well of a 96-well plate in 0.1 mL of complete culture medium. Cells were allowed to attach for 24 h before the treatment at 37 °C for 72 h with the compounds at concentrations ranging between 0.1 and 75 μM, bringing the final volume to 0.2 mL/well. Each experiment included eight replications per concentration tested; control samples were run with 0.2% DMSO. At the end of the incubation period, MTT (0.05 mL of a 2 mg/mL stock solution in PBS) was added to each well for 3 h at 37 °C. Cell supernatants were then carefully removed, the blue formazan crystals formed through MTT reduction by metabolically active cells were dissolved in 0.120 mL of DMSO, and the corresponding optical densities were measured at 570 nm using a Universal Microplate Reader EL800 (Bio-Tek, Winooski, VT).
(§3) IC50 values were estimated from the resulting concentration–response curves by nonlinear regression analysis using GraphPad Prism software, v. 5.0 (GraphPad, San Diego, CA, USA). Differences between IC50 values were evaluated statistically by analysis of variance with a Bonferroni post-test for multiple comparisons.

MCF7 cells = assay: MTT cell viability assay, MCF7; format: cell-based; conditions: Homo sapiens
Method: as §1, §2, §3

WH1 human fibroblasts = assay: MTT cell viability assay, WH1 fibroblasts; format: cell-based; conditions: Fibroblast, 72 h treatment
Method: as §1, §2, §3

HCT116 cells = assay: MTT cell viability assay, HCT116; format: cell-based; conditions: Homo sapiens, HCT-116; supplement csv, unit inferred; read-out: HCT116 IC50
Method: as §1, §2, §3

MDA-MB231 cells = assay: MTT cell viability assay, MDA-MB231; format: cell-based; conditions: Homo sapiens, MDA-MB-231
Method: as §1, §2, §3

PC3 cells = assay: MTT cell viability assay, PC3; format: cell-based; conditions: Homo sapiens, PC-3
Method: as §1, §2, §3

MCF7/ADR cells = assay: MTT cell viability assay, DOX-resistant MCF7/ADR; format: cell-based, human; conditions: for IC50: Homo sapiens, NCI/ADR-RES, 72 h treatment, MTT; for R.I. (resistance index): MCF7/ADR vs MCF7
Method: as §2, §3

HBL100 cells = assay: MTT cell viability assay, non-tumorigenic HBL100; format: cell-based; conditions: Homo sapiens, HBL-100, 72 h treatment
Method: as §2, §3

[1] = 72 h treatment, MTT, read-out: IC50 DU145
[2] = supplement csv, unit inferred, read-out: DU145 IC50
[3] = 72 h treatment, MTT, read-out: IC50 MCF7
[4] = supplement csv, unit inferred, read-out: MDA-MB231 IC50
[5] = supplement csv, unit inferred, read-out: PC3 IC50

Structure (SMILES)	IC50 (DU145 cells; [1])	IC50 (DU145 cells; [2])	IC50 (MCF7 cells; [3])	IC50 (WH1 human fibroblasts)	IC50 (HCT116 cells)	IC50 (MDA-MB231 cells; 72 h treatment, MTT, read-out: IC50 MDA-MB231)	IC50 (MDA-MB231 cells; [4])	IC50 (PC3 cells; 72 h treatment, MTT, read-out: IC50 PC3)	IC50 (PC3 cells; [5])	IC50 (MCF7/ADR cells)	R.I. (resistance index) (MCF7/ADR cells)	IC50 (HBL100 cells)	melting point	IC50 (MCF7 cells; supplement csv, unit inferred, read-out: MCF7 IC50)
O=C(O)c1cn(C2CC2)c2cc(N3CCN(CCNc4ccc([N+](=O)[O-])c(C(F)(F)F)c4)CC3)c(F)cc2c1=O [Compound 7a, 1-Cyclopropyl-6-fluoro-7-(4-(2-((4-nitro-3-(trifluoromethyl)phenyl)amino)ethyl)piperazin-1-yl)-4-oxo-1,4-dihydroquinoline-3-carboxylic Acid]	< 3 µM	2.56 ± 0.21 µM	3.12 ± 0.62 µM	5.7 ± 0.92 µM	5.29 ± 0.72 µM	< 2.5 µM	2.24 ± 0.18 µM	< 3 µM	2.48 ± 0.42 µM	14.7 ± 4.2 µM	4.7	9.14 ± 0.44 µM	–	–
CCn1cc(C(=O)OC)c(=O)c2cc(F)c(N3CCN(CCNc4ccc([N+](=O)[O-])c(C(F)(F)F)c4)CC3)cc21 [Compound 6c, Methyl 1-Ethyl-6-fluoro-7-(4-(2-((4-nitro-3-(trifluoromethyl)phenyl)amino)ethyl)piperazin-1-yl)-4-oxo-1,4-dihydroquinoline-3-carboxylate]	–	4.77 ± 0.99 µM	15.04 ± 0.1 µM	10.6 ± 1.9 µM	12.4 ± 2.9 µM	–	11.9 ± 1 µM	–	9.26 ± 1.29 µM	17.2 ± 1 µM	1.1	10.8 ± 0.6 µM	245 to 247 °C	–
COC(=O)c1cn(C2CC2)c2cc(N3CCN(CCCNc4ccc([N+](=O)[O-])c(C(F)(F)F)c4)CC3)c(F)cc2c1=O [Compound 6b, Methyl 1-Cyclopropyl-6-fluoro-7-(4-(3-((4-nitro-3-(trifluoromethyl)phenyl)amino)propyl)piperazin-1-yl)-4-oxo-1,4-dihydroquinoline-3-carboxylate]	–	14 ± 1.4 µM	12.1 ± 1.1 µM	13.2 ± 3.4 µM	5.21 ± 0.73 µM	–	3.76 ± 0.94 µM	–	3.17 ± 0.47 µM	18.76 ± 0.1 µM	1.5	12.2 ± 2 µM	202 to 204 °C	–
COc1cccc2c1C(=O)c1c(O)c3c(c(O)c1C2=O)C[C@@](O)(C(=O)CO)C[C@@H]3O[C@H]1C[C@H](N)[C@H](O)[C@H](C)O1 [DOX, doxorubicin, reference compound]	–	–	–	–	–	–	–	–	–	66.9 ± 2.56 µM	–	–	–	–
COC(=O)c1cn(C2CC2)c2cc(N3CCN(c4ccc([N+](=O)[O-])c(C(F)(F)F)c4)CC3)c(F)cc2c1=O [Compound 3a, Methyl 1-Cyclopropyl-6-fluoro-7-(4-(4-nitro-3-(trifluoromethyl)phenyl)piperazin-1-yl)-4-oxo-1,4-dihydroquinoline-3-carboxylate]	–	5.67 ± 0.06 µM	15.5 ± 1.2 µM	8.38 ± 1.2 µM	6.93 ± 1.53 µM	–	10.7 ± 1.9 µM	–	15.9 ± 0.5 µM	19.6 ± 3.2 µM	1.3	10.6 ± 2.4 µM	265 to 267 °C	–
CCn1cc(C(=O)O)c(=O)c2cc(F)c(N3CCN(c4ccc([N+](=O)[O-])c(C(F)(F)F)c4)CC3)cc21 [Compound 1b, 1-Ethyl-6-fluoro-7-(4-(4-nitro-3-(trifluoromethyl)phenyl)piperazin-1-yl)-4-oxo-1,4-dihydroquinoline-3-carboxylic Acid]	–	2.85 ± 0.01 µM	–	5.35 ± 1.14 µM	10.4 ± 1.5 µM	–	6.93 ± 0.85 µM	–	3.07 ± 0.64 µM	5.63 µM	1.1	9.26 ± 1.79 µM	310 to 312 °C	5.24 ± 0.7 µM
CCn1cc(C(=O)O)c(=O)c2cc(F)c(N3CCN(CCCNc4ccc([N+](=O)[O-])c(C(F)(F)F)c4)CC3)cc21 [Compound 7d, 1-Ethyl-6-fluoro-7-(4-(3-((4-nitro-3-(trifluoromethyl)phenyl)amino)propyl)piperazin-1-yl)-4-oxo-1,4-dihydroquinoline-3-carboxylic Acid]	1.56 µM	–	5.83 ± 0.82 µM	8.94 ± 0.91 µM	5.36 ± 0.65 µM	–	3.64 ± 0.63 µM	–	4.83 ± 1.15 µM	20 ± 0.3 µM	3.4	10.4 ± 0.9 µM	–	–
COC(=O)c1cn(C2CC2)c2cc(N3CCN(CCNc4ccc([N+](=O)[O-])c(C(F)(F)F)c4)CC3)c(F)cc2c1=O [Compound 6a, Methyl 1-Cyclopropyl-6-fluoro-7-(4-(2-((4-nitro-3-(trifluoromethyl)phenyl)amino)ethyl)piperazin-1-yl)-4-oxo-1,4-dihydroquinoline-3-carboxylate]	–	4.8 ± 0.96 µM	16.8 ± 2.4 µM	10.5 ± 2.5 µM	15.7 ± 2 µM	–	16.1 ± 2.1 µM	–	6.72 ± 0.35 µM	15.1 ± 2.3 µM	0.9	9.76 ± 0.9 µM	231 to 233 °C	–
CCn1cc(C(=O)OC)c(=O)c2cc(F)c(N3CCN(c4ccc([N+](=O)[O-])c(C(F)(F)F)c4)CC3)cc21 [Compound 3b, Methyl 1-Ethyl-6-fluoro-7-(4-(4-nitro-3-(trifluoromethyl)phenyl)piperazin-1-yl)-4-oxo-1,4-dihydroquinoline-3-carboxylate]	–	6.06 ± 0.51 µM	11.7 ± 1.4 µM	9 ± 1.91 µM	9.73 ± 2.25 µM	–	10.2 ± 3.1 µM	–	15.3 ± 1.2 µM	15 ± 2.1 µM	1.3	12 ± 1.7 µM	236 to 238 °C	–
O=C(O)c1cn(C2CC2)c2cc(N3CCN(c4ccc([N+](=O)[O-])c(C(F)(F)F)c4)CC3)c(F)cc2c1=O [Compound 1a, 1-Cyclopropyl-6-fluoro-7-(4-(4-nitro-3-(trifluoromethyl)phenyl)piperazin-1-yl)-4-oxo-1,4-dihydroquinoline-3-carboxylic Acid]	–	7.78 ± 1.52 µM	8.8 ± 1.59 µM	9.17 ± 0.6 µM	9.67 ± 0.36 µM	–	8.06 ± 1.05 µM	–	6.45 ± 0.19 µM	8.72 ± 1.25 µM	1.0	7.79 ± 0.66 µM	296 to 298 °C	–
